In patent US20140087362A1 (priority 2012, published 2014):
Entries after “also recorded” stand apart in the source; their conditions may differ.

Legend:
ALDH1 = assay: ALDEFLUOR assay with or without DEAB; assay type: cell-based, human
Procedure: Aldehyde dehydrogenase (ALDH1) is a useful marker for isolating primitive stem cell populations including normal human mammary stem and progenitor cells as well as transformed tumor-initiating stem cells. In this example, GI-101A, MCF7, MDA-MB-231, Hs 578T, and SUM139PT breast cancer cell lines were tested for activity of the ALDH1 marker using a commercial assay to detect ALDH1 expression and thereby identify tumor stem cells (the ALDEFLUOR® assay (available from Stemcell™ Technologies, Vancouver BC, CA; see Ginestier et al. (2007) Cell Stem Cell 1(5):555-567)). […] The ALDH substrate fluoresces upon cleavage by ALDH.
ALDEFLUOR® assay fluorescence was excited at 488 nm and fluorescence emission was detected using a standard FITC 530/30 band pass filter. The sorting gates were established using propidium iodide stained cells for viability and the ALDEFLUOR® assay-stained cells treated with DEAB as negative controls.
To supplement the flow cytometric analysis, the presence of ALDH in GI-101A was assessed visually by fluorescence microscopy. ALDEFLUOR® assay-labeled cells, with or without DEAB, were counterstained with the nuclear dye 4′,6-diamidino-2-phenylindole (DAPI). Phase contrast and fluorescent images of the cells were taken using a fluorescence microscope, equipped with the appropriate filters and a digital camera, using a 100× objective.
First an ALDEFLUOR assay was performed on GI-101 cells in the presence or absence of DEAB inhibitor as described in Example 21. The ALDEFLUOR stained cells were then subjected to staining with CD44, CD24 and CD49f antibodies. The ALDEFLUOR stained cells were centrifuged for 10 minutes at 300×g at 4° C. and resuspended to a concentration of 2×10^7 cells per mL in cold staining buffer. 50 μL it of cells were added to 12×75 round bottoms tubes on ice for each stain. 10 μL diluted antibody mixture was added and incubated for 30-45 minutes in an ice bath to minimize release of the Hoechst dye. […] The cells were washed twice with 2 mL staining buffer at 4° C. The cells were resuspended in 400 μL it staining buffer and kept on ice until analyzed by flow cytometry.

[1] = test system: A549 lung cancer cell line; assay: Side population by Hoechst 33342 staining and flow cytometry; assay type: cell-based, human
mouse bone marrow cells = assay: as above
HMLE cells = assay: EMT induction in human mammary epithelial cells; assay type: cell-based
Procedure: Human mammary epithelial cells (HMLE; Dr. Robert A. Weinberg) were plated at a density of about 50% in DMEM/F-12 medium and incubated overnight at 37° C. in a CO2 incubator. The cells were then cultured in inducing medium (DMEM/F-12 (1:1) medium supplemented with insulin, hydrocortisone, 5% FBS, and 2.5 ng/mL TGF-β1) to induce EMT or non-inducing medium (i.e. without TGF-β1). The inducing medium or non-inducing medium was refreshed every 3 days for 12 days. Following EMT treatment, one set of cells were immunostained for E-cadherin, vimentin and fibronectin expression, three widely used EMT markers. Another set of cells was harvested, stained for CD44 and CD24 expression and analyzed by flow cytometry as described in Example 27.
For immunostaining of E-cadherin, vimentin and fibronectin, cells were fixed and permeabilized on the culture plates and incubated with FITC-conjugated antibodies against E-cadherin, vimentin and fibronectin using a standard cell staining protocol. Following removal of unbound antibody, the cells were counterstained with the nuclear dye 4′,6-diamidino-2-phenylindole (DAPI). After staining, phase contrast and fluorescent images of the cells were taken using a fluorescence microscope, equipped with the appropriate filters and a digital camera, using a 100× objective.

CCN(CC)c1ccc(C=O)cc1 [DEAB]
ALDH− cells (ALDH1; CD44/CD24 staining set): 99.9% | ALDH+ cells (ALDH1; CD44/CD49f staining set): 0.09% | ALDH− cells (ALDH1; CD44/CD49f staining set): 99.9% | ALDH+ cells (ALDH1; GI-101 cells, CD44/CD24 staining set): 0.09%

COc1ccc2c3c([nH]c2c1)[C@H](C=C(C)C)N1C(=O)[C@@H]2CCCN2C(=O)[C@@H]1C3 [FTC, Fumitremorgin C]
side population cells ([1]; 25 μM): 1.31±0.2% | side population cells ([1]; 50 μM): 0.92±0.2% | side population cells ([1]; 100 μM): 0.62±0.1% | side population cells ([1]; 200 μM): 0.46±0.08%

COc1ccc(CCN(C)CCCC(C#N)(c2ccc(OC)c(OC)c2)C(C)C)cc1OC (stereo not shown) [Verapamil]
side population, percent of registered events (mouse bone marrow cells; 50 μM): 3.74±0.3% | side population, percent of registered events (mouse bone marrow cells; 100 μM): 1.76±0.1%

COC(=O)[C@H]1[C@H]2C[C@@H]3c4[nH]c5cc(OC)ccc5c4CCN3C[C@H]2C[C@@H](OC(=O)c2cc(OC)c(OC)c(OC)c2)[C@@H]1OC [reserpine]
side population cells ([1]; 12.5 μM): 1.51±0.1% | side population cells ([1]; 25 μM): 0.56±0.08% | side population cells ([1]; 50 μM): 0.51±0.01% | side population cells ([1]; 200 μM): 0.48±0.06%

TGF-β1: transforming growth factor β used to induce EMT
CD44^+/CD24^−/low cells (HMLE cells; 2.5 ng/mL, 12 days EMT induction): 51.9%±3 | EMT marker expression (E-cadherin, vimentin, fibronectin) (HMLE cells; 12 days post-EMT induction, versus non-induced): E-cadherin expression was down-regulated; also recorded: vimentin expression was up-regulated; also recorded: fibronectin expression was up-regulated
